Source: US11180462B2, “Microbiocidal oxadiazole derivatives” (SYNGENTA PARTICIPATIONS AG, priority 2015, dated 2021)

Tests used:
[1] = test system: Puccinia recondita f. Sp. Tritici; assay: Fungicidal activity against Puccinia recondita f. sp. tritici / wheat / leaf disc preventative (brown rust); assay type: in vivo; conditions: foliar, 200 ppm in the applied formulation, wheat leaf segments, preventative, compared to untreated control leaf disks, read-out: disease control
Method in brief: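 200 ppm spray on wheat cv. Kanzler leaf segments; spore inoculation +1 day; 19° C., 75% rh, 12 h/12 h light cycle; single rating of % control vs untreated at 7 to 9 days.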

[2] = test system: Puccinia recondita f. Sp. Tritici; assay: Fungicidal activity against Puccinia recondita f. sp. tritici / wheat / leaf disc curative (brown rust); assay type: in vivo; conditions: foliar, 24 h, 200 ppm in the applied formulation, wheat leaf segments, curative (applied 1 day after inoculation), compared to untreated control leaf disks, read-out: disease control
Protocol: Leaf disks or leaf segments of various plant species are cut from plants grown in a greenhouse. The cut leaf disks or segments are placed in multiwell plates (24-well format) onto water agar. The leaf disks are sprayed with a test solution before (preventative) or after (curative) inoculation. Compounds to be tested are prepared as DMSO solutions (max. 10 mg/ml) which are diluted to the appropriate concentration with 0.025% Tween20 just before spraying. The inoculated leaf disks or segments are incubated under defined conditions (temperature, relative humidity, light, etc.) according to the respective test system. A single evaluation of disease level is carried out 3 to 14 days after inoculation, depending on the pathosystem. Percent disease control relative to the untreated check leaf disks or segments is then calculated.
Fungicidal Activity Against Puccinia recondita f. Sp. Tritici/Wheat/Leaf Disc Curative (Brown Rust)
Wheat leaf segments cv. Kanzler are placed on agar in multiwell plates (24-well format). The leaf segments are then inoculated with a spore suspension of the fungus. Plates were stored in darkness at 19° C. and 75% relative humidity. The formulated test compound diluted in water was applied 1 day after inoculation. The leaf segments were incubated at 19° C. and 75% relative humidity under a light regime of 12 hours light/12 hours darkness in a climate cabinet and the activity of a compound was assessed as percent disease control compared to untreated when an appropriate level of disease damage appears in untreated check leaf segments (6 to 8 days after application).
The following compounds at 200 ppm in the applied formulation give at least 80% disease control in this test when compared to untreated control leaf disks under the same conditions, which show extensive disease development.

[3] = test system: Glomerella lagenarium (Colletotrichum lagenarium); assay: Fungicidal activity against Glomerella lagenarium (Colletotrichum lagenarium) liquid culture / cucumber / preventative (anthracnose); assay type: cell-based; conditions: Colletotrichum orbiculare; 20 ppm in the applied formulation; liquid culture (PDB), growth inhibition measured photometrically after 3 to 4 days; compared to untreated control; read-out: disease control
Method in brief: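 Percent activity against the untreated check was derived from photometric growth measurements made 2 to 7 days after conidia in potato dextrose broth were combined with compound at 20 ppm. Cultures were kept dark at 24 °C and 96% humidity.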

C#CCOc1ccc(C(=O)N(Cc2ccc(-c3noc(C(F)(F)F)n3)cc2)C2CC2)cc1F [Compound 1.129, N-cyclopropyl-3-fluoro-4-prop-2-ynoxy-N-[[4-[5-(trifluoromethyl)-1,2,4-oxadiazol-3-yl]phenyl]methyl]-benzamide]
≥ 80%: pest or weed control at 200 ppm [1] | pest or weed control at 200 ppm [2] | inhibition of growth at 20 ppm [3]

O=C(c1cccc2nnsc12)N(Cc1ccc(-c2noc(C(F)(F)F)n2)cc1)C1CC1 [Compound 1.139, N-cyclopropyl-N-[[4-[5-(trifluoromethyl)-1,2,4-oxadiazol-3-yl]phenyl]methyl]-1,2,3-benzothiadiazole-7-carboxamide]
≥ 80%: pest or weed control at 200 ppm [1] | pest or weed control at 200 ppm [2] | inhibition of growth at 20 ppm [3]

C#CCN(Cc1ccc(-c2noc(C(F)(F)F)n2)cc1)C(=O)C1(C(F)(F)F)CCC1 [Compound 1.161, N-prop-2-ynyl-1-(trifluoromethyl)-N-[[4-[5-(trifluoromethyl)-1,2,4-oxadiazol-3-yl]phenyl]methyl]-cyclobutane-carboxamide]
≥ 80%: pest or weed control at 200 ppm [1] | pest or weed control at 200 ppm [2] | inhibition of growth at 20 ppm [3]

C#CCN(Cc1ccc(-c2noc(C(F)(F)F)n2)cc1)C(=O)CCCCC [Compound 1.162, N-prop-2-ynyl-N-[[4-[5-(trifluoromethyl)-1,2,4-oxadiazol-3-yl]phenyl]methyl]-hexanamide]
≥ 80%: pest or weed control at 200 ppm [1] | pest or weed control at 200 ppm [2] | inhibition of growth at 20 ppm [3]

CC(C)(C)C(=O)N(Cc1ccc(-c2noc(C(F)(F)F)n2)cc1)CC1CC1 [Compound 1.225, N-(cyclopropylmethyl)-2,2-dimethyl-N-[[4-[5-(trifluoromethyl)-1,2,4-oxadiazol-3-yl]phenyl]methyl]-propanamide]
≥ 80%: pest or weed control at 200 ppm [1] | pest or weed control at 200 ppm [2] | inhibition of growth at 20 ppm [3]

CCC(COC)C(=O)N(Cc1ccc(-c2noc(C(F)(F)F)n2)cc1)CC1CC1 (stereo not drawn) [Compound 1.237, N-(cyclopropylmethyl)-2-(methoxymethyl)-N-[[4-[5-(trifluoromethyl)-1,2,4-oxadiazol-3-yl]phenyl]methyl]-butanamide]
≥ 80%: pest or weed control at 200 ppm [1] | pest or weed control at 200 ppm [2] | inhibition of growth at 20 ppm [3]

CC#CC(=O)N(OC)C(C)c1ccc(-c2noc(C(F)(F)F)n2)cc1 (stereo not drawn) [Compound 1.248, N-methoxy-N-[1-[4-[5-(trifluoromethyl)-1,2,4-oxadiazol-3-yl]phenyl]ethyl]but-2-ynamide]
≥ 80%: pest or weed control at 200 ppm [1] | pest or weed control at 200 ppm [2] | inhibition of growth at 20 ppm [3]

CON(C(=O)C1CCCCO1)C(C)c1ccc(-c2noc(C(F)(F)F)n2)cc1 (stereo not drawn) [Compound 1.249, N-methoxy-N-[1-[4-[5-(trifluoromethyl)-1,2,4-oxadiazol-3-yl]phenyl]ethyl]-tetrahydropyran-2-carboxamide]
≥ 80%: pest or weed control at 200 ppm [1] | pest or weed control at 200 ppm [2] | inhibition of growth at 20 ppm [3]

CON(C(=O)C1CSC1)C(C)c1ccc(-c2noc(C(F)(F)F)n2)cc1 (stereo not drawn) [Compound 1.259, N-methoxy-N-[1-[4-[5-(trifluoromethyl)-1,2,4-oxadiazol-3-yl]phenyl]ethyl]-thietane-3-carboxamide]
≥ 80%: pest or weed control at 200 ppm [1] | pest or weed control at 200 ppm [2] | inhibition of growth at 20 ppm [3]

COCCC(=O)N(OC)C(C)c1ccc(-c2noc(C(F)(F)F)n2)cc1 (stereo not drawn) [Compound 1.260, N,3-dimethoxy-N-[1-[4-[5-(trifluoromethyl)-1,2,4-oxadiazol-3-yl]phenyl]ethyl]-propanamide]
≥ 80%: pest or weed control at 200 ppm [1] | pest or weed control at 200 ppm [2] | inhibition of growth at 20 ppm [3]

COCCOCC(=O)N(OC)C(C)c1ccc(-c2noc(C(F)(F)F)n2)cc1 (stereo not drawn) [Compound 1.266, N-methoxy-2-(2-methoxyethoxy)-N-[1-[4-[5-(trifluoromethyl)-1,2,4-oxadiazol-3-yl]phenyl]ethyl]-acetamide]
≥ 80%: pest or weed control at 200 ppm [1] | pest or weed control at 200 ppm [2] | inhibition of growth at 20 ppm [3]

CON(C(=O)COC(C)=O)C(C)c1ccc(-c2noc(C(F)(F)F)n2)cc1 (stereo not drawn) [Compound 1.270, [2-[methoxy-[1-[4-[5-(trifluoromethyl)-1,2,4-oxadiazol-3-yl]phenyl]ethyl]-amino]-2-oxo-ethyl] acetate]
≥ 80%: pest or weed control at 200 ppm [1] | pest or weed control at 200 ppm [2] | inhibition of growth at 20 ppm [3]

CON(C(=O)C1OCCO1)C(C)c1ccc(-c2noc(C(F)(F)F)n2)cc1 (stereo not drawn) [Compound 1.276, N-methoxy-N-[1-[4-[5-(trifluoromethyl)-1,2,4-oxadiazol-3-yl]phenyl]ethyl]-1,3-dioxolane-2-carboxamide]
≥ 80%: pest or weed control at 200 ppm [1] | pest or weed control at 200 ppm [2] | inhibition of growth at 20 ppm [3]

CON(C(=O)C1CC1)C(C)c1ccc(-c2noc(C(F)(F)F)n2)cc1 (stereo not drawn) [Compound 1.279, N-methoxy-N-[1-[4-[5-(trifluoromethyl)-1,2,4-oxadiazol-3-yl]phenyl]ethyl]-cyclopropane-carboxamide]
≥ 80%: pest or weed control at 200 ppm [1] | pest or weed control at 200 ppm [2] | inhibition of growth at 20 ppm [3]

COCCCC(=O)N(OC)C(C)c1ccc(-c2noc(C(F)(F)F)n2)cc1 (stereo not drawn) [Compound 1.280, N,4-dimethoxy-N-[1-[4-[5-(trifluoro-methyl)-1,2,4-oxadiazol-3-yl]phenyl]ethyl]-butanamide]
≥ 80%: pest or weed control at 200 ppm [1] | pest or weed control at 200 ppm [2] | inhibition of growth at 20 ppm [3]

CCCON(Cc1ccc(-c2noc(C(F)(F)F)n2)cc1)C(=O)C(C)CC (stereo not drawn) [Compound 1.308, 2-methyl-N-propoxy-N-[[4-[5-(trifiuoromethyl)-1,2,4-oxadiazol-3-yl]phenyl]methyl]-butanamide]
≥ 80%: pest or weed control at 200 ppm [1] | pest or weed control at 200 ppm [2] | inhibition of growth at 20 ppm [3]

CC#CC(=O)N(CCOC)Cc1ccc(-c2noc(C(F)(F)F)n2)cc1 [Compound 1.323, N-(2-methoxyethyl)-N-[[4-[5-(trifluoromethyl)-1,2,4-oxadiazol-3-yl]phenyl]methyl]but-2-yaamide]
≥ 80%: pest or weed control at 200 ppm [1] | pest or weed control at 200 ppm [2] | inhibition of growth at 20 ppm [3]

CC=CC(=O)N(CCOC)Cc1ccc(-c2noc(C(F)(F)F)n2)cc1 [Compound 1.326, N-(2-methoxyethyl)-N-[[4-[5-(trifluoromethyl)-1,2,4-oxadiazol-3-yl]phenyl]methyl]but-2-enamide]
≥ 80%: pest or weed control at 200 ppm [1] | pest or weed control at 200 ppm [2] | inhibition of growth at 20 ppm [3]

COCCN(Cc1ccc(-c2noc(C(F)(F)F)n2)cc1)C(=O)COC [Compound 1.328, 2-methoxy-N-(2-methoxyethyl)-N-[[4-[5-(trifluoromethyl)-1,2,4-oxadiazol-3-yl]phenyl]methyl]-acetamide]
≥ 80%: pest or weed control at 200 ppm [1] | pest or weed control at 200 ppm [2] | inhibition of growth at 20 ppm [3]

CC=C(C)C(=O)N(CCOC)Cc1ccc(-c2noc(C(F)(F)F)n2)cc1 [Compound 1.330, N-(2-methoxyethyl)-2-methyl-N-[[4-[5-(trifluoromethyl)-1,2,4-oxadiazol-3-yl]phenyl]methyl]-but-2-enamide]
≥ 80%: pest or weed control at 200 ppm [1] | pest or weed control at 200 ppm [2] | inhibition of growth at 20 ppm [3]

COCCN(Cc1ccc(-c2noc(C(F)(F)F)n2)cc1)C(=O)C1CCCC1 [Compound 1.332, N-(2-methoxyethyl)-N-[[4-[5-(trifluoromethyl)-1,2,4-oxadiazol-3-yl]phenyl]methyl]-cyclopentane-carboxamide]
≥ 80%: pest or weed control at 200 ppm [1] | pest or weed control at 200 ppm [2] | inhibition of growth at 20 ppm [3]

COCCN(Cc1ccc(-c2noc(C(F)(F)F)n2)cc1)C(=O)C1=CCCC1 [Compound 1.333, N-(2-methoxyethyl)-N-[[4-[5-(trifluoromethyl)-1,2,4-oxadiazol-3-yl]phenyl]methyl]-cyclopentene-1-carboxamide]
≥ 80%: pest or weed control at 200 ppm [1] | pest or weed control at 200 ppm [2] | inhibition of growth at 20 ppm [3]

COCCN(Cc1ccc(-c2noc(C(F)(F)F)n2)cc1)C(=O)C1CSC1 [Compound 1.334]
≥ 80%: pest or weed control at 200 ppm [1] | pest or weed control at 200 ppm [2] | inhibition of growth at 20 ppm [3]

COCCN(Cc1ccc(-c2noc(C(F)(F)F)n2)cc1)C(=O)CC(C)C [Compound 1.336, N-(2-methoxyethyl)-3-methyl-N-[[4-[5-(trifluoromethyl)-1,2,4-oxadiazol-3-yl]phenyl]methyl]-butanamide]
≥ 80%: pest or weed control at 200 ppm [1] | pest or weed control at 200 ppm [2] | inhibition of growth at 20 ppm [3]
